According to the NIST ThermoML archive (doi:10.1016/j.fluid.2016.11.012):
Values joined by “and” are separate entries in the source; they are usually repeats but may differ in a detail not shown here. Equal values may be shown once. Numbers after ± are expanded uncertainties.

What was measured:
[1] = molar heat capacity at constant pressure; conditions: 100 kPa, DSC
[2] = Crystal; for vapor or sublimation pressure: Closed cell (Static) method
[3] = Molar enthalpy of transition or fusion; conditions: Crystal; DSC

C1=Cc2cccc3cccc1c23 [acenaphthylene]
[1]
Conditions | molar heat capacity at constant pressure
304.12 K, Crystal | 185.5 ± 8.6 J/K/mol and 185.08 ± 8.6 J/K/mol and 185.83 ± 8.6 J/K/mol
306.11 K, Crystal | 186.74 ± 8.6 J/K/mol and 186.41 ± 8.6 J/K/mol and 186.24 ± 8.6 J/K/mol
308.11 K, Crystal | 188.24 ± 8.7 J/K/mol and 187.99 ± 8.7 J/K/mol and 188.07 ± 8.7 J/K/mol
310.11 K, Crystal | 188.57 ± 8.7 J/K/mol and 188.99 ± 8.7 J/K/mol and 188.74 ± 8.7 J/K/mol
312.11 K, Crystal | 189.4 ± 8.8 J/K/mol and 189.49 ± 8.8 J/K/mol
314.11 K, Crystal | 190.82 ± 8.8 J/K/mol and 190.32 ± 8.8 J/K/mol
316.11 K, Crystal | 191.23 ± 8.9 J/K/mol and 191.73 ± 8.9 J/K/mol and 192.23 ± 8.9 J/K/mol
318.11 K, Crystal | 192.31 ± 8.9 J/K/mol and 192.65 ± 8.9 J/K/mol and 192.15 ± 8.9 J/K/mol
320.11 K, Crystal | 193.81 ± 9 J/K/mol and 193.73 ± 9 J/K/mol and 193.56 ± 9 J/K/mol
322.11 K, Crystal | 195.06 ± 9.1 J/K/mol and 195.47 ± 9.1 J/K/mol
324.11 K, Crystal | 196.55 ± 9.1 J/K/mol and 196.06 ± 9.1 J/K/mol and 196.14 ± 9.1 J/K/mol
326.11 K, Crystal | 196.97 ± 9.1 J/K/mol and 197.8 ± 9.1 J/K/mol and 196.8 ± 9.1 J/K/mol
328.12 K, Crystal | 198.13 ± 9.2 J/K/mol and 198.22 ± 9.2 J/K/mol and 198.55 ± 9.2 J/K/mol
330.12 K, Crystal | 200.13 ± 9.3 J/K/mol and 198.88 ± 9.2 J/K/mol and 199.8 ± 9.2 J/K/mol
332.13 K, Crystal | 201.21 ± 9.3 J/K/mol and 200.88 ± 9.3 J/K/mol and 201.38 ± 9.3 J/K/mol
369.13 K, Liquid | 247.86 ± 11 J/K/mol and 248.77 ± 12 J/K/mol and 247.19 ± 11 J/K/mol
371.13 K, Liquid | 249.1 ± 12 J/K/mol and 248.1 ± 11 J/K/mol
373.13 K, Liquid | 251.1 ± 12 J/K/mol and 250.68 ± 12 J/K/mol and 249.52 ± 12 J/K/mol
375.13 K, Liquid | 250.68 ± 12 J/K/mol and 249.02 ± 12 J/K/mol and 253.51 ± 12 J/K/mol
377.13 K, Liquid | 254.17 ± 12 J/K/mol and 251.51 ± 12 J/K/mol and 250.68 ± 12 J/K/mol
379.13 K, Liquid | 253.59 ± 12 J/K/mol and 250.93 ± 12 J/K/mol and 251.35 ± 12 J/K/mol
381.13 K, Liquid | 253.92 ± 12 J/K/mol and 251.01 ± 12 J/K/mol and 252.18 ± 12 J/K/mol
383.13 K, Liquid | 254.76 ± 12 J/K/mol and 252.59 ± 12 J/K/mol and 252.51 ± 12 J/K/mol
385.13 K, Liquid | 255.92 ± 12 J/K/mol and 253.59 ± 12 J/K/mol and 253.01 ± 12 J/K/mol
387.13 K, Liquid | 255.01 ± 12 J/K/mol and 253.51 ± 12 J/K/mol and 252.93 ± 12 J/K/mol

[2]
Conditions | Normal melting temperature [°C] | vapor or sublimation pressure
296.95 K | – | 0.00087 ± 0.00011 kPa
296.97 K | – | 0.00086 ± 0.00011 kPa
296.98 K | – | 0.00088 ± 0.00011 kPa
302.22 K | – | 0.00147 ± 0.00012 kPa
302.23 K | – | 0.00148 ± 0.00012 kPa and 0.00147 ± 0.00012 kPa
307.47 K | – | 0.00244 ± 0.00014 kPa
307.48 K | – | 0.00247 ± 0.00014 kPa
307.49 K | – | 0.00243 ± 0.00014 kPa
312.71 K | – | 0.00399 ± 0.00019 kPa
312.72 K | – | 0.00399 ± 0.00019 kPa and 0.00397 ± 0.00019 kPa
317.89 K | – | 0.00629 ± 0.00027 kPa and 0.00628 ± 0.00027 kPa and 0.00632 ± 0.00027 kPa
323.06 K | – | 0.00986 ± 0.0004 kPa
323.07 K | – | 0.00984 ± 0.0004 kPa and 0.00986 ± 0.0004 kPa
328.2 K | – | 0.01511 ± 0.00055 kPa
328.21 K | – | 0.01516 ± 0.00055 kPa
328.22 K | – | 0.01513 ± 0.00055 kPa
333.33 K | – | 0.02281 ± 0.00067 kPa
333.34 K | – | 0.02286 ± 0.00067 kPa and 0.02282 ± 0.00067 kPa
338.45 K | – | 0.03393 ± 0.00084 kPa and 0.03392 ± 0.00084 kPa
343.49 K | – | 0.04954 ± 0.0011 kPa
343.5 K | – | 0.04955 ± 0.0011 kPa and 0.0496 ± 0.0011 kPa
348.54 K | – | 0.07154 ± 0.0014 kPa and 0.07156 ± 0.0014 kPa
353.54 K | – | 0.1018 ± 0.0019 kPa
353.55 K | – | 0.1017 ± 0.0019 kPa and 0.1018 ± 0.0019 kPa
358.56 K | – | 0.1434 ± 0.0021 kPa and 0.1435 ± 0.0021 kPa
361.06 K | – | 0.1694 ± 0.0023 kPa
361.07 K | – | 0.1693 ± 0.0023 kPa and 0.1695 ± 0.0023 kPa
363.54 K | – | 0.1995 ± 0.0026 kPa
363.55 K | – | 0.1996 ± 0.0026 kPa and 0.1994 ± 0.0026 kPa
DTA | 92.00 ± 0.7 | –

Conditions | Molar enthalpy of transition or fusion [kcal/mol]
[3] | 2.8 ± 0.158

c1ccc2c(c1)Cc1ccccc1-2 [fluorene]
[1], Crystal
Conditions | molar heat capacity at constant pressure
262.36 K | 171.44 ± 6.7 J/K/mol
262.44 K | 171.61 ± 6.7 J/K/mol
262.47 K | 171.61 ± 6.7 J/K/mol
265 K | 173.52 ± 6.7 J/K/mol and 173.36 ± 6.7 J/K/mol
270 K | 176.77 ± 6.8 J/K/mol and 176.68 ± 6.8 J/K/mol
275 K | 180.01 ± 7 J/K/mol and 179.93 ± 7 J/K/mol and 180.09 ± 7 J/K/mol
280 K | 183.33 ± 7.1 J/K/mol and 183.25 ± 7.1 J/K/mol
285 K | 186.49 ± 7.2 J/K/mol and 186.41 ± 7.2 J/K/mol and 186.33 ± 7.2 J/K/mol
290 K | 189.65 ± 7.3 J/K/mol and 189.49 ± 7.3 J/K/mol and 189.4 ± 7.3 J/K/mol
295 K | 192.9 ± 7.5 J/K/mol and 192.81 ± 7.5 J/K/mol and 192.73 ± 7.5 J/K/mol
300 K | 196.47 ± 7.6 J/K/mol and 196.31 ± 7.6 J/K/mol
305 K | 201.38 ± 7.8 J/K/mol and 201.21 ± 7.8 J/K/mol
310 K | 208.11 ± 8.1 J/K/mol and 208.2 ± 8.1 J/K/mol and 207.95 ± 8.1 J/K/mol
315 K | 216.18 ± 8.4 J/K/mol and 216.34 ± 8.4 J/K/mol and 216.09 ± 8.4 J/K/mol
320 K | 223.33 ± 8.6 J/K/mol and 223.66 ± 8.6 J/K/mol and 223.41 ± 8.6 J/K/mol
325 K | 227.9 ± 8.8 J/K/mol and 228.32 ± 8.8 J/K/mol
330 K | 231.81 ± 9 J/K/mol and 232.39 ± 9 J/K/mol and 232.31 ± 9 J/K/mol
335 K | 236.96 ± 9.1 J/K/mol and 237.3 ± 9.2 J/K/mol and 237.21 ± 9.2 J/K/mol
340 K | 242.04 ± 9.4 J/K/mol and 241.87 ± 9.4 J/K/mol
345 K | 246.77 ± 9.6 J/K/mol and 246.61 ± 9.6 J/K/mol
350 K | 251.85 ± 9.7 J/K/mol and 251.76 ± 9.7 J/K/mol and 251.68 ± 9.7 J/K/mol
355 K | 257.25 ± 10 J/K/mol and 257.17 ± 10 J/K/mol and 257.08 ± 10 J/K/mol
358.37 K | 261.08 ± 10 J/K/mol
358.5 K | 261.32 ± 10 J/K/mol and 261.24 ± 10 J/K/mol
